Reference: PubChem BioAssay AID1117324 (Cheminformatics & Chemogenomics Research Group (CCRG), …, 2015)
Active and inactive are the calls of the source. No rule for the calls is given here. *1 amine or outer side, *2 acyl side, *3 side chain or, on linkers, in order; H or OH if unused. Where a SMILES comes first, the peptide text is derived from it. Bridges are numbered along the chain shown (N, C = ends). Roman numbers before positions name the chains, in order. [ ]: non-standard residue; d: D form. Actinocin(9to1) = Cc1c2oc3c(C)ccc(C(=O)[*:1])c3nc-2c(C(=O)[*:2])c(N)c1=O; NMeV = CN[C@H](C(=O)O)C(C)C; Sar = CNCC(=O)O

Test system: VEGF-stimulated ADSC/ECFC co-culture, nuclear area imaging
Assay: nuclear area loss in endothelial-stromal co-culture, dose response, cell-based, VEGF stimulation, IC50 (AID 1117324)

Compound	IC50
CC1=C(C(=O)OC(C)C)C(c2cccc([N+](=O)[O-])c2)C(C(=O)OC2CN(C(c3ccccc3)c3ccccc3)C2)=C(N)N1 (stereo unspecified)	7.39 µM (inactive)
Cc1c(C(=O)NN2CCCCC2)nn(-c2ccc(Cl)cc2Cl)c1-c1ccc(Cl)cc1	> 10 µM (inactive)
COCC(C)N(C(=O)CCl)c1c(C)csc1C (stereo unspecified)	> 10 µM (inactive)
Cc1cc(=O)c2c(O)c3c(O)cc(=O)c4c3c3c(cc(O)c1c23)C(C)(C)C=4O	2.07 µM
CN1CCN(CCCN2c3ccccc3Sc3ccc(S(=O)(=O)N(C)C)cc32)CC1	> 10 µM (inactive)
Nc1nc(F)nc2c1ncn2[C@@H]1O[C@H](CO)[C@@H](O)[C@@H]1O	> 10 µM (inactive)
O=C(Nc1ccc(Cl)cc1)Nc1ccc(Cl)c(Cl)c1	> 10 µM (inactive)
C#C[C@]1(O)CC[C@H]2[C@@H]3CCc4cc(O)ccc4[C@H]3CC[C@@]21C	> 10 µM (inactive)
COc1ccccc1OCCNCC(O)COc1cccc2[nH]c3ccccc3c12 (stereo unspecified)	> 10 µM (inactive)
CC(=O)Oc1ccc(C2(c3ccc(OC(C)=O)cc3)Oc3ccccc3NC2=O)cc1	> 10 µM (inactive)
CCOC(=O)[C@H](CCc1ccccc1)N[C@@H](C)C(=O)N1Cc2cc(OC)c(OC)cc2C[C@H]1C(=O)O	> 10 µM (inactive)
CCCOC(=O)c1cc(O)c(O)c(O)c1	> 10 µM (inactive)
COc1cc([C@@H]2c3cc4c(cc3[C@@H](O[C@@H]3O[C@@H]5CO[C@@H](C)O[C@@H]5[C@H](O)[C@@H]3O)[C@H]3COC(=O)[C@H]23)OCO4)cc(OC)c1O	0.967 µM
CC(=O)Oc1ccccc1C(=O)Nc1ncc([N+](=O)[O-])s1	> 10 µM (inactive)
CC(=O)c1ccc(OCC(=O)N2CCCCC2)cc1	> 10 µM (inactive)
Cc1cc(-c2ccc(N=Nc3c(S(=O)(=O)O)cc4cc(S(=O)(=O)O)cc(N)c4c3O)c(C)c2)ccc1N=Nc1c(S(=O)(=O)O)cc2cc(S(=O)(=O)O)cc(N)c2c1O	> 10 µM (inactive)
C=C(C)[C@H]1Cc2c(ccc3c2O[C@@H]2COc4cc(OC)c(OC)cc4[C@@H]2C3=O)O1	> 10 µM (inactive)
CCCCN(CCCC)CCC(O)c1cc2c(Cl)cc(Cl)cc2c2cc(C(F)(F)F)ccc12 (stereo unspecified)	> 10 µM (inactive)
COc1ccc(Cc2nccc3cc(OC)c(OC)cc23)cc1OC	> 10 µM (inactive)
CC(C)=CCC/C(C)=C/CC/C(C)=C/C(=O)OCC(=O)[C@@]1(O)CC[C@H]2[C@@H]3CCC4=CC(=O)C=C[C@]4(C)[C@H]3[C@@H](O)C[C@@]21C	> 10 µM (inactive)
COP(=S)(OC)Oc1ccc(Sc2ccc(OP(=S)(OC)OC)cc2)cc1	> 10 µM (inactive)

Compound	IC50
COC(=O)C(Cl)C(=O)OC	> 10 µM (inactive)
Cc1ccc2c(Br)cc(Br)c(O)c2n1	> 10 µM (inactive)
Cc1ccc(O)cc1	> 10 µM (inactive)
CN(C)CCOC1=Cc2ccccc2Sc2ccc(Cl)cc21	> 10 µM (inactive)
CCCCCCCCCCCCCCCCCCOP(=O)([O-])OC1CC[N+](C)(C)CC1	> 10 µM (inactive)
Cc1nc(Nc2ncc(C(=O)Nc3c(C)cccc3Cl)s2)cc(N2CCN(CCO)CC2)n1	> 10 µM (inactive)
O=C1c2c(O)cccc2Cc2cccc(O)c21	> 10 µM (inactive)
[O-][n+]1ccccc1SSc1cccc[n+]1[O-]	1.79 µM
O=C(Nc1ccc(Br)cc1)c1cc(Br)c(Br)s1	> 10 µM (inactive)
CCN(CC)CCNC(=O)c1c(C)[nH]c(/C=C2\C(=O)Nc3ccc(F)cc32)c1C	> 10 µM (inactive)
CCCCCCCCCCCCCC[N+](C)(C)C	6.68 µM (inactive)
O=C(O)c1ccc(-n2nc(-c3ccccc3O)nc2-c2ccccc2O)cc1	> 10 µM (inactive)
CC(C)C[C@H](NC(=O)[C@H](CCc1ccccc1)NC(=O)CN1CCOCC1)C(=O)N[C@@H](Cc1ccccc1)C(=O)N[C@@H](CC(C)C)C(=O)[C@@]1(C)CO1	0.285 µM
CNS(=O)(=O)CCc1ccc2[nH]cc(C3CCN(C)CC3)c2c1	> 10 µM (inactive)
Clc1ccc(COC(Cn2ccnc2)c2ccc(Cl)cc2Cl)cc1 (stereo unspecified)	9.93 µM (inactive)
Nc1ncn([C@@H]2O[C@H](CO)[C@@H](O)[C@H]2O)c(=O)n1	> 10 µM (inactive)
c1ccc2c(c1)Sc1ccccc1N2CC1CN2CCC1CC2 (stereo unspecified)	> 10 µM (inactive)
C=CCN1CC[C@]23CCCC[C@H]2[C@H]1Cc1ccc(O)cc13	> 10 µM (inactive)
CN(C)C(=O)Oc1cccc([N+](C)(C)C)c1	> 10 µM (inactive)
COC(=O)Nc1nc2ccc(C(=O)c3cccs3)cc2[nH]1	> 10 µM (inactive)
C/C(=N\O)[C@@H](C)NCC(C)(C)CN[C@H](C)/C(C)=N/O	> 10 µM (inactive)

Compound	IC50
CCCCC(=O)O[C@H]1CC[C@H]2[C@@H]3CCc4cc(O)ccc4[C@@H]3CC[C@]12C	8.3 µM (inactive)
CCOP(=S)(OCC)SCSc1ccc(Cl)cc1	> 10 µM (inactive)
Oc1ccc(Cl)cc1Sc1cc(Cl)ccc1O	8.69 µM (inactive)
CCCCCCCCCCCC(=O)[O][Sn]([CH2]CCC)([CH2]CCC)[O]C(=O)CCCCCCCCCCC	> 10 µM (inactive)
C[S+](CC[C@H](N)C(=O)O)C[C@H]1O[C@@H](n2cnc3c(N)ncnc32)[C@H](O)[C@H]1O (stereo partly specified)	> 10 µM (inactive)
CC[C@@]1(O)C(=O)OCc2c1cc1n(c2=O)Cc2cc3c(CN(C)C)c(O)ccc3nc2-1	0.025 µM
COc1cccc2c1C(=O)c1c(O)c3c(c(O)c1C2=O)C[C@@](O)(C(=O)CO)C[C@@H]3O[C@H]1C[C@H](N)[C@H](O[C@@H]2CCCCO2)[C@H](C)O1	0.995 µM
CCOC(=O)c1ccccc1C(=O)OCC	> 10 µM (inactive)
Cc1c2oc3c(C)ccc(C(=O)N[C@@H]4C(=O)N[C@H](C(C)C)C(=O)N5CCC[C@H]5C(=O)N(C)CC(=O)N(C)[C@@H](C(C)C)C(=O)O[C@@H]4C)c3nc-2c(C(=O)N[C@@H]2C(=O)N[C@H](C(C)C)C(=O)N3CCC[C@H]3C(=O)N(C)CC(=O)N(C)[C@@H](C(C)C)C(=O)O[C@@H]2C)c(N)c1=O (I: T[dV]P[Sar][NMeV] / II: T[dV]P[Sar][NMeV]; ester I:1-I:C, II:1-II:C; linker I:N-II:N via Actinocin(9to1))	0.0403 µM
Cc1[nH]cnc1C[C@H]1CCc2c(C)c3ccccc3n2C1=O	> 10 µM (inactive)
COc1ccc(CCN2CCC(Nc3nc4ccccc4n3Cc3ccc(F)cc3)CC2)cc1	> 10 µM (inactive)
NC(=O)n1c(O)c(C(=O)c2cccs2)c2cc(Cl)ccc21	> 10 µM (inactive)
NC(=O)C1(N2CCCCC2)CCN(CCCN2c3ccccc3CCc3ccc(Cl)cc32)CC1	> 10 µM (inactive)
COc1ccc([C@@H]2Sc3ccccc3NC(=O)[C@@H]2O)cc1	> 10 µM (inactive)
O=C(c1ccc(F)cc1)C1CCN(CCn2c(=O)[nH]c3ccccc3c2=O)CC1	> 10 µM (inactive)
C/C=C(/C(=C/C)c1ccc(OC(C)=O)cc1)c1ccc(OC(C)=O)cc1	> 10 µM (inactive)
CCCCCCNC(=O)n1cc(F)c(=O)[nH]c1=O	> 10 µM (inactive)
COCCOC(=O)C1=C(C)NC(C)=C(C(=O)OC/C=C/c2ccccc2)C1c1cccc([N+](=O)[O-])c1 (stereo unspecified)	> 10 µM (inactive)
CCCCCCOC(=O)c1cccnc1	> 10 µM (inactive)
